One test deals with T1, Hsp90 (Homo sapiens, UniProt P07900).
T1 construct: purchased Assay Designs (Ann Arbor, MI, USA); host or cells: E. coli
Nature of the test: SPR binding assay on immobilized Hsp90. On the procedure:
Radicicol was used as positive controls.
SPR analyses were performed as describe elsewhere, [38]. Briefly, SPR analyses were performed using a Biacore 3000 optical biosensor equipped with research-grade CM5 sensor chips (GE Healthcare). Using this platform, two separate recombinant Hsp90 surfaces, a BSA surface and an unmodified reference surface were prepared for simultaneous analyses. […] Included in each analysis were multiple blank samples of running buffer alone. Binding experiments were performed at 25°C, using a flow rate of 50 µL min^−1, with 60 s monitoring of association and 200 s monitoring of dissociation. […] Sensorgram elaborations were performed using the Biaevaluation software provided by GE Healthcare.

Another test addresses T2, Hsp90 ATPase activity (Homo sapiens, UniProt P07900).
T2 construct: purchased Assay Designs (Ann Arbor, MI, USA); host or cells: E. coli
Nature of the test: ATP hydrolysis inhibition (ADP Hunter Plus assay). Format: biochemical. The conditions noted are these: 40 nM Hsp90, 100 µM ATP; for inhibition of the ATPase activity of Hsp90: 60 min, 40°C, different concentrations. As for the experimental part: To evaluate the effect of interacting compounds on Hsp90 biological activity, the ATPase activity of the enzyme was tested in the presence of the most affine compounds (1, 3 and 4); […]. (−)-Lentiginosine was used as negative control.
The Discover RX ADP HunterTM Plus Assay kit was used following the manufacturer’s instructions. […]. ADP generation was measured using a Perkin Elmer LS 55 fluorimeter (540 nm excitation and 620 nm emission). Fluorescence intensity values measured for Hsp90 without any testing compound was assumed as 100% of enzyme activity. The background reaction rate was measured in a reaction lacking enzyme or substrate and subtracted from the experimental rates.

For another test, the target named is T3, Hsp90 chaperone activity (Homo sapiens, UniProt P07900).
T3 construct: purchased Assay Designs (Ann Arbor, MI, USA); host or cells: E. coli
In words: Citrate synthase thermal aggregation assay (chaperone activity). The class given is biochemical. The conditions noted are these: 0.075 µM CS, 0.075 µM Hsp90, 0.3 µM compound (4-fold molar excess), 43°C, light scattering. On the procedure:
The ability of compounds 1, 3 and 4 to inhibit the chaperone activity of Hsp90 was also evaluated monitoring the citrate synthase (CS) thermal induced aggregation in the presence of Hsp90 [24], with or without these compounds. […] The spontaneous aggregation of CS at 43°C (♦) and the aggregation of CS at 43°C in the presence of 0.075 µM Hsp90 (Δ) or of 0.075 µM Hsp90 and 0.3 µM compound 1 (▪), 0.3 µM compound 2 (•), 0.3 compound 3 (□), or 0.3 µM compound 4 (○) are shown. Chaperone activity was evaluated as reported elsewhere by monitoring the thermal-induced aggregation of Citrate synthase (CS) in absence or in presence of a stoichiometric amount of Hsp90, and with or without a 4-fold molar excess of each testing compound. Aggregation was initiated by unfolding CS (0.075 µM) incubating the protein in 40 mM HEPES–KOH, pH 7.5 at 43°C. Aggregation was monitored by measuring light scattering at right angles with Perkin Elmer LS 55 fluorimeter in stirred and thermostated quartz cells. Both the emission and excitation wavelengths were set at 500 nm, and the band pass was 2 nm. Kinetics traces reported here are the averages of two measurements.

The target of test [1] is T4, human full length recombinant Hsp90 (Homo sapiens, UniProt P07900).
T4 construct: purchased Assay Designs (Ann Arbor, MI, USA); host or cells: E. coli
In words: Competitive fluorescence polarization assay with fluorescent geldanamycin probe (fGDA). The conditions noted are these: concentration up to 100 µM, added before or after fGDA. Format: binding. On the procedure: In an effort to identify the Hsp90 region involved in (+)-lentiginosine binding, we first performed some fluorescence polarization assays using a fluorescent geldanamycin probe (fGDA) to evaluate if this compound could interact with the ATP-binding pocket of Hsp90 [25].
Binding of compound 1 to human full length recombinant Hsp90 was determined by a competitive binding fluorescence polarization assay using a fluorescent geldanamycin probe, as reported elsewhere.
(Polarisation of emitted light reports the rotation of a fluorescent probe.)

[2] abbreviates: immobilized Hsp90, 25°C, single-site bimolecular model.

For orientation: Kd means the constant that tells how readily two partners part at equilibrium. Read a low Kd as higher affinity. Regarding `O[C@@H]1[C@@H](O)CN2CCCC[C@@H]12` [Compound 1, (+)-lentiginosine], at Hsp90 (setting [2]), the Kd was determined as 24.7 ± 0.6 nM and the koff is 1.86±0.31 10^-3 1/s. In addition, on Hsp90 ATPase activity, the “ATPase inhibitory power compared with 17-AAG” value was “inhibitory power higher than that measured for 17-AAG” and the “inhibition of the ATPase activity of Hsp90” value is “inhibit the ATPase activity of Hsp90 in a concentration dependent manner”. The “inhibition of Hsp90 chaperone activity (CS aggregation kinetics)” value (“inhibition … (CS aggregation kinetics)” for short) against Hsp90 chaperone activity is recorded as “inhibition of Hsp90 chaperone activity”. In addition, the “displacement of fGDA from Hsp90” value in test [1] is on record as “unable to displace fGDA”.

With `OCCc1cn([C@H]2CCN3C[C@H](O)[C@@H](O)[C@@H]3C2)nn1` [Compound 5], at Hsp90 (setting [2]), the Kd stood at 116 ± 1.6 nM and the koff was 2.55±0.35 10^-3 1/s.

Turning to `CCCCCCc1cn([C@H]2CCN3C[C@H](O)[C@@H](O)[C@@H]3C2)nn1` [Compound 4], on Hsp90 (setting [2]), the affinity, expressed as Kd, was 45.9 ± 0.5 nM and the koff was 2.05±0.42 10^-3 1/s. Besides, the “inhibition of the ATPase activity of Hsp90” value at Hsp90 ATPase activity is recorded as “inhibit the ATPase activity of Hsp90 in a concentration dependent manner”. For the same compound, at Hsp90 chaperone activity, the “inhibition … (CS aggregation kinetics)” value is on record as “inhibitory effects were less evident”.

With `N[C@H]1CCN2C[C@H](O)[C@@H](O)[C@@H]2C1` [Compound 7], at Hsp90 (setting [2]), the dissociation constant Kd is 1009 ± 5.8 nM and the koff was 25.6±2.1 10^-3 1/s.

Turning to `N=C(N)NCCC[C@H](N)C(=O)N[C@H]1CCN2C[C@H](O)[C@@H](O)[C@@H]2C1` [Compound 3], at Hsp90 (setting [2]), binding was put at a Kd of 108 ± 1.1 nM and the koff is on record as 2.18±0.23 10^-3 1/s. Further, at Hsp90 ATPase activity, the “inhibition of the ATPase activity of Hsp90” value was “inhibit the ATPase activity of Hsp90 in a concentration dependent manner”. Besides, the “inhibition … (CS aggregation kinetics)” value on Hsp90 chaperone activity is listed as “inhibitory effects were less evident”.

Turning to `O[C@H]1[C@H](O)CN2CCCC[C@H]12` [Compound 2, (−)-lentiginosine], the “interaction with immobilized Hsp90” value at Hsp90 (0.020 to 1 µM) is on record as “did not bind”. For the same compound, the KD result on Hsp90 (setting [2]) is listed as “No binding”. Further, at Hsp90 chaperone activity, the “inhibition … (CS aggregation kinetics)” value was “not able to inhibit the chaperone activity of Hsp90”.

In the case of `N[C@@H](Cc1c[nH]c2ccccc12)C(=O)NCc1cn([C@H]2CCN3C[C@H](O)[C@@H](O)[C@@H]3C2)nn1` [Compound 6], on Hsp90 (setting [2]), the affinity, expressed as Kd, was 306.8 ± 2.9 nM and the koff was 4.12±0.81 10^-3 1/s.

The record behind these values is article PMC3423353, “Natural Iminosugar (+)-Lentiginosine Inhibits ATPase and Chaperone Activity of Hsp90” (PLoS ONE, 2012).
